Source: ChEMBL document CHEMBL4339213, “Microwave-assisted synthesis and in vitro stability of N-benzylamide non-steroidal anti-inflammatory drug conjugates for CNS delivery” (Bioorg Med Chem Lett, 2019)

What was measured:
[1] = Half life in human plasma; assay type: ADME, cell-free
[2] = Drug metabolism in human plasma assessed as release of the NSAID by LC-MS analysis; assay type: ADME, cell-free
[3] = Half life in human plasma at 125 uM by HPLC analysis; assay type: ADME, cell-free
[4] = Half life in pH 7.4 PBS at 125 uM incubated at 37 degC by HPLC analysis; assay type: physicochemical
[5] = Half life in human plasma at 100 uM by HPLC analysis; assay type: ADME, cell-free

half-life [1] | Drug metabolism [2] | half-life at 125 µM [3] | half-life at 125 µM [4] | half-life at 100 µM [5] | Compound
> 3.6 h | Metabolite_Detected |  |  |  | COc1ccc2c(c1)c(CC(=O)OCCC(=O)NCc1ccccc1)c(C)n2C(=O)c1ccc(Cl)cc1
 | Metabolite_Detected | 4.7 min | > 48 h |  | COc1ccc2cc([C@H](C)C(=O)OCCC(=O)NCc3ccccc3)ccc2c1
 | Metabolite_Detected |  | > 48 h |  | CC(C)Cc1ccc(C(C)C(=O)OCCC(=O)NCc2ccccc2)cc1 (stereo not given)
 | Metabolite_Detected |  | > 48 h | 1.83 h | CC(C(=O)OCCC(=O)NCc1ccccc1)c1ccc(-c2ccccc2)c(F)c1 (stereo not given)
